For one data set, the target named is T1, PPARα (Rattus norvegicus, UniProt P37230).
T1 construct: endogenous in cells; host or cells: H4IIEC3 rat hepatoma cells
T1 sequence (P37230 1-468): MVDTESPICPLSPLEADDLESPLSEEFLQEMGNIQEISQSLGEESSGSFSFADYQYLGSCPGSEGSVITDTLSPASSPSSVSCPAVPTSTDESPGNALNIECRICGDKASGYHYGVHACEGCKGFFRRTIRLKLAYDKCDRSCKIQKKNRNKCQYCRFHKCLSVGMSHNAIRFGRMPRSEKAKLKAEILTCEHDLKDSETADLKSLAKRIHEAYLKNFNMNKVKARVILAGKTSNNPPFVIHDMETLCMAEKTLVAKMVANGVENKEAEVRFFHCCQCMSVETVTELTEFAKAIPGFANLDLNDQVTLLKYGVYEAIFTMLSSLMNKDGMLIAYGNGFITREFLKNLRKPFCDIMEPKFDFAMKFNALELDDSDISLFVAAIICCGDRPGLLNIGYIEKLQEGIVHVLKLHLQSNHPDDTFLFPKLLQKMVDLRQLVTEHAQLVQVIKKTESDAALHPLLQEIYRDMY
The experiment in a line: Activation of PPARα in H4IIEC3 cells transfected with PPRE-AB-luciferase reporter gene. The format is cell-based. Background: A reporter such as luciferase makes a cellular process visible.

The nature of data set [1]: Hamster feeding study: plasma lipoprotein cholesterol, glucose, weights. The format is in vivo, golden Syrian hamsters. The following applies: hamsters; for plasma LDL cholesterol lower compared to control group / total plasma cholesterol lower compared to control group: 25 mg/kg diet. On the procedure: Male golden Syrian hamsters (Charles River, Wilmington, Mass.), initial weight ranging from 34-41 g, were fed a powdered stock diet (Rodent Lab Chow 5001, Purina Mills, St. Louis, Mo.) for 7 days. The animals were placed in individual wire-bottom cages in a room kept at 20-22° C., 60% rh and 12 h light and dark cycle. Following the initial 7 day period, 8-10 animals were randomly assigned from a weight sorted list to each of five test diets (α-cellulose control and test substance). Food intake was measured twice each week and body weights were monitored once a week. After 21 days on the treatment diets, the animals were killed, blood was collected and analyzed for total cholesterol by the cholesterol oxidase method and lipoprotein cholesterol, by size exclusion chromatography, as previously described (German et al. 1996. Nutrition Res. 16: 1239-1249). All animal procedures were approved by the Animal Care and Use Committee, Western Regional Research Center, USDA, Albany, Calif. and conformed to the principles in “Guide for the Care and Use of Laboratory Animals” (Committee on Care and Use of Laboratory Animals 1985). Plasma blood glucose was determined using a blood glucose meter (Fast Glucose Meter-Precision Xtra, MediSense, Bedford, Mass., USA). Diets were prepared by dissolving powdered cholesterol into warmed butterfat, followed by the addition of corn and fish oil. The small amounts of test ingredients were dissolved in about 50 ml of ethanol and added to the stirring dry ingredients. The liquid fat was also added to the dry ingredients while stirring. Differences between treatments were tested by two-tailed t-test assuming equal variance, and were considered significant at p<0.05.

Test in data set [2]: as above
The format is in vivo, golden Syrian hamsters. The following applies: hamsters; plant materials at about 10% of total diet; data not shown.

The subject of another data set is H4IIEC3 cells. The experiment in a line: Toxicity to H4IIEC3 cells during the reporter assay. To be noted: 100 and 300 μM. Type of data set: cell-based, rat.

Regarding `COc1ccc(C=Cc2cc(OC)cc(OC)c2)cc1` [resveratrol trimethylether], the “induction of luciferase activity” value at PPARα (all the concentrations tested (1, 10, 100, 300 μM)) is listed as “only slightly”.

For the compound `CC(C)(Oc1ccc(C2CC2(Cl)Cl)cc1)C(=O)O` (stereo not drawn) [ciprofibrate], the “PPARα activation (luciferase activity)” value at PPARα (100 μM, H4IIEC3 cells) amounted to 19460±1466 relative luciferase units. On PPARα (100 μM, H4IIEC3 cells, 30 hr, n=4), the “maximal luciferase response compared to control” value is “about 5 fold”. Besides, the “agonist / activator of PPARα” value at PPARα (H4IIEC3 cells) is recorded as “acts as an agonist of PPARα”.

Take `COc1cc(/C=C/c2ccc(O)cc2)cc(OC)c1` [pterostilbene]: in data set [1], the “plasma LDL cholesterol lower compared to control group” value is recorded as 29% and the “total plasma cholesterol lower compared to control group” value is listed as 18%. Further, in data set [1] (25 ppm in diet, 21 days), the “Final Weights: Body wt (AVG)” value came to 110.5 g, the “Final Weights: Liver wt (AVG)” value came to 7.9 g, the “LDL/HDL (AVG)” value is on record as 1.8 and the “Liver/Body (AVG)” value was 7.1. Also, in data set [1] (25 ppm in diet, 21 days), the “Plasma Lipoprotein Cholesterol HDL (AVG)” value is 137.0 mg/dL, the “Plasma Lipoprotein Cholesterol LDL (AVG)” value was found to be 228.1 mg/dL, the “Plasma Lipoprotein Cholesterol Total (AVG)” value is 447.8 mg/dL and the “Plasma Lipoprotein Cholesterol VLDL (AVG)” value was determined as 82.7 mg/dL. The “Plasma glucose (AVG)” value in data set [1] (25 ppm in diet, 21 days) turned out to be 185.1.

Take `Oc1ccc(C=Cc2cc(O)cc(O)c2)cc1` [resveratrol]: in data set [1], the “plasma LDL cholesterol lower compared to control group” value amounted to 20% and the “total plasma cholesterol lower compared to control group” value is on record as 14%. Besides, in data set [1] (25 ppm in diet, 21 days), the “Final Weights: Body wt (AVG)” value was determined as 109.5 g, the “Final Weights: Liver wt (AVG)” value stood at 7.6 g, the “LDL/HDL (AVG)” value is reported as 2.2 and the “Plasma Lipoprotein Cholesterol HDL (AVG)” value is given as 127.1 mg/dL. Moreover, in data set [1] (25 ppm in diet, 21 days), the “Plasma Lipoprotein Cholesterol LDL (AVG)” value came to 257.4 mg/dL, the “Plasma Lipoprotein Cholesterol Total (AVG)” value came to 468.2 mg/dL, the “Plasma Lipoprotein Cholesterol VLDL (AVG)” value was 83.6 mg/dL and the “Plasma glucose (AVG)” value was found to be 191. Moreover, the “lowering of plasma cholesterol levels versus freeze-dried tomato and eggplant materials” value in data set [2] is on record as “more effective than the plant materials”. In addition, the “toxicity to H4IIEC3 cells” value in the data set on H4IIEC3 cells was “toxic”.
